According to patent US5866617A, “Formulations and methods of use 2,2'-dithio-bis-esthane sulfonate” (BioNumerik Pharmaceuticals, Inc., priority 1997, dated 1999):

Legend:
[1] = tested on: cancer patients; conditions: cited from earlier work
[2] = Body weight change in tumor bearing Fischer rats
Method: FIG. 4. Weight Change in Tumor Bearing Fischer Rats Treated with Parenteral Cisplatin (6 mg/kg or 9 mg/kg) and 2,2'-Dithio-Bis-Ethane Sulfonate (BNP7787 @ 1,000 mg/kg).
The antitumor activity and toxicity, as measured by weight changes estimated by changes in tumor volumes and animal weights, respectively, of escalating doses of parenterally (intravenously) administered cisplatin (6 mg/kg and 9 mg/kg) with or without substantially contemporaneously intravenously administered BNP7787 (1000 mg/kg) was investigated in Fischer rats bearing subcutaneous established (~3.0 g) WARD colon cancer.

[3] = tested on: WARD colon cancer; assay: Antitumor activity in Fischer rats bearing subcutaneous WARD colon cancer; assay type: in vivo
Method: Antitumor Response of Tumor Bearing Fischer Rats Treated with Parenteral Cisplatin (6 mg/kg or 9 mg/kg) and 2,2'-Dithio-Bis-Ethane Sulfonate (BNP7787 @ 1000 mg/kg).

[4] = tested on: Fischer rats; assay: Protection against cisplatin induced myelosuppression in Fischer rats (day 5 WBC); assay type: in vivo; conditions: for deviation of mean WBC from untreated controls: day 5
Method: FIG. 3. Total WBC Values on Day 5 Post Treatment with i.v. Cisplatin (6 mg/kg) With or Without Increasing Doses of i.v. 2,2'-Dithio-Bis-Ethane Sulfonate (BNP7787).
(§1) The data from these studies are shown below in FIGS. 1 and 2. Under Good Laboratory Practice (GLP) conditions, Fischer rats (10 rats per treatment group) were treated with or without escalating doses of BNP7787 (up to 1000 mg/kg) administered by i.v. injection with a nephrotoxic dose of cisplatin (6 mg/kg). Serum BUN (FIG. 2) and Creatinine (FIG. 1) values were measured on day 5 and the animals were weighed daily. […] The mean day 5 WBC levels of rats treated with higher doses of 2,2'-dithio-bis-ethane sulfonate, namely the 333 mg/kg and 1,000 mg/kg treatment groups, are approximately 6,800 and 6,200, respectively. These mean WBC values are within 15% of the WBC values for untreated controls. The day 5 mean WBC counts for the cisplatin only and low dose (37 mg/kg) 2,2'-dithio-bis-ethane sulfonate treatment groups are approximately 4,800 and 4,500, respectively and represent a 32% to 36% reduction in the day 5 mean WBC from the untreated control group. The Fischer rat model is highly correlated with cisplatin induced nephrotoxicity in humans and is thus an excellent animal model to support the utility of 2,2'-dithio-bis-ethane sulfonate to protect against cisplatin induced nephrotoxicity in humans.

[5] = in vivo; cited from earlier work
[6] = rat, in vivo, iv, 180 min; cited from earlier work
[7] = tested on: rats; conditions: single i.p. dose of 3 mg cisplatin/kg, cited from earlier work
[8] = human, in vivo, cited from earlier work
[9] = Stability of 2,2'-dithio-bis-ethane sulfonate in acidic and basic aqueous media (proton NMR); assay type: physicochemical
Method: The stability of 2,2'-dithio-bis-ethane sulfonate at room temperature was determined at pH ranges of 1.5 to 9.0.
The stability of 2,2'-dithio-bis-ethane sulfonate in acidic and basic aqueous media can be studied as described in this example. In a typical experiment, 50 mg of 2,2'-dithio-bis-ethane sulfonate (as produced by using the above described method) was dissolved in one ml of water and the pH of the solution adjusted to 1.5, 2.0, 3.0, 4.0, 5.0 and 6.0 by adding 1N hydrochloric acid in water or the pH adjusted to 8.0, 9.0, 10.0 or 11.0 by adding 1N sodium hydroxide in water. The reaction mixture was then stirred for 24 hours at room temperature, the water was removed at reduced pressure, dissolved in spectral grade D2 O, and the proton NMR spectrum was recorded.
The stability of 2,2'-dithio-bis-ethane sulfonate at pH 1.5 is further studied by heating the reaction mixture to 100 degrees Celsius for 10 minutes.

[10] = physchem; conditions: water
Method: In this example, 10 grams of the disodium salt of 2,2'-dithio-bis-ethane sulfonate was dissolved in 50 ml of sterile HPLC grade water and the pH of the solution was readjusted to a pH of 7.0 using 1N hydrochloric acid. The resulting solution was then passed through a 0.2 micron syringe filter into an autoclaved round bottom flask (250 ml). This sterile solution was then freeze dried (lyophilized) to a white crystalline powder. The lyophilized powder was then used for the following solubility studies.
1 ml of sterile HPLC grade water was distributed in each of ten sterilized 10 ml vials. […] Each vial was first observed at room temperature for a period of approximately 15 minutes, and then heated to a temperature of 37° C. for a period of at least 15 minutes.

[11] = Solubility in sterile water and 0.9% sodium chloride solution, pH 7.15 (tyndall effect); assay type: physicochemical; conditions: water and 0.9% nacl, read-out: concentrations at which soluble
Method: 1 ml of 0.9% sodium chloride solution was then distributed in each of a second set of six sterilized 10 ml vials. The 0.9% sodium chloride solution was obtained by dissolving 9 mg of USP grade sodium chloride in sterile HPLC grade water using an agitator.

[12] = tested on: Fischer rats; assay: Protection against cisplatin induced nephrotoxicity in Fischer rats (day 5 serum creatinine and BUN); assay type: in vivo
Method: FIG. 1. Serum Creatinine Values on Day 5 Post Treatment with i.v. Cisplatin (6 mg/kg) With or Without Increasing Doses of i.v. 2,2'-Dithio-Bis-Ethane Sulfonate (BNP7787).
FIG. 2. Serum BUN (Blood Urea Nitrogen) Values on Day 5 Post Treatment with i.v. Cisplatin (6 mg/kg) With or Without Increasing Doses of i.v. 2,2'-Dithio-Bis-Ethane Sulfonate (BNP7787).
as §1

[13] = BNP7787 1000 mg/kg i.v. with cisplatin 6 mg/kg and 9 mg/kg
[14] = BNP7787 37 mg/kg with cisplatin 6 mg/kg
[15] = BNP7787 333 mg/kg with cisplatin 6 mg/kg
[16] = BNP7787 1,000 mg/kg with cisplatin 6 mg/kg

O=S(O)(O)=S [thiosulfates, sodium thiosulfate]
increase of cisplatin dose per meter square that could be administered intraperitoneally ([1]; thiosulfates by intravenous infusion): more than two fold | renal toxicity of intraperitoneal cisplatin ([1]; thiosulfates by the intravenous route): renal toxicity could be prevented

N.N.[Cl][Pt][Cl] [cisplatin, cis-diammine dichloro platinum, reference compound]
loss of body weight ([2]; cisplatin alone, 6 mg/kg and 9 mg/kg, at 6 days): up to 8% | median tumor weight at maximum reduction (from 3,000 mg) ([3]; cisplatin only 6 mg/kg i.v.): 700 mg | median tumor weight at maximum reduction (from 3,000 mg) ([3]; cisplatin only 9 mg/kg i.v.): 500 mg | mean day 5 WBC ([4]; cisplatin only 6 mg/kg): approximately 4,800 | reduction in day 5 mean WBC from the untreated control group ([4]; cisplatin only 6 mg/kg): 32%

O=S(=O)([O-])CCS.[Na+]
administered mesna dose found in the urine in the form of mesna (reactive thiol) [5]: approximately 45% | administered dose recovered in the urine [6]: over 80% | protection of kidneys from renal damage ([7]; low doses of mesna): only partially protected | prevention of renal damage ([7]; per os mesna): complete prevention of renal damage | dose appearing as thiol groups in the urine ([8]; iv, 20 mg/kg): about 48% | dose excreted in the urine as reactive thiol groups ([8]; po): approximately 52% | minimum concentration presumed to still be protective [8]: 100 µg/mL

O=S(=O)([O-])CCSSCCS(=O)(=O)[O-].[Na+].[Na+]
change in proton spectrum on heating ([9]; pH 1.5, 100 degrees Celsius, 10 minutes): No change in the proton spectrum | pH range in which stable ([9]; room temperature, 24 hours, listed as 2,2'-dithio-bis-ethane sulfonate): 1.0-11.0 | mean weights compared with all other treatment groups [2, 13]: greater mean weights than all other treatment groups | protection against renal damage as measured by weight loss [2, 13]: clearly protective against renal damage | solubility [10]: 10.5 to 102 mg/mL | potentiation of cisplatin antitumor activity ([3]; BNP7787 1000 mg/kg i.v. with cisplatin 6 mg/kg or 9 mg/kg): potentiation of cisplatin antitumor activity | intrinsic antitumor activity ([3]; BNP7787 without cisplatin): lacks intrinsic antitumor activity | median tumor weight at maximum reduction (from 3,000 mg) ([3]; cisplatin 6 mg/kg immediately followed by BNP7787 1,000 mg/kg i.v.): less than 300 mg | median tumor weight at maximum reduction (from 3,000 mg) ([3]; cisplatin 9 mg/kg immediately followed by BNP7787 1,000 mg/kg i.v.): < 100 mg | effect on antitumor activity of cisplatin (abrogation) ([3]; substantially contemporaneous administration with cisplatin): does not abrogate the antitumor activity of cisplatin | solubility [11]: 100 to 320 mg/mL | nephrotoxicity (plasma BUN and creatinine levels and histopathology) relative to cisplatin only ([12]; BNP7787 37 mg/kg with cisplatin 6 mg/kg i.v.): slight increase in nephrotoxicity | renal protection (day 5 creatinine and BUN) ([12]; BNP7787 333 mg/kg i.v. with cisplatin 6 mg/kg i.v.): 100% | renal protection (day 5 creatinine and BUN) ([12]; BNP7787 1000 mg/kg i.v. with cisplatin 6 mg/kg i.v.): 100% | dose-response effect in renal protection ([12]; escalating i.v. doses up to 1000 mg/kg with cisplatin 6 mg/kg): clear dose-response effect | mean day 5 WBC [4, 14]: ~4,500 | reduction in day 5 mean WBC from the untreated control group [4, 14]: 36% | mean day 5 WBC [4, 15]: approximately 6,800 | deviation of mean WBC from untreated controls [4, 15]: ≤ 15% | mean day 5 WBC [4, 16]: ~6,200 | deviation of mean WBC from untreated controls [4, 16]: ≤ 15% | protective effect against cisplatin induced myelosuppression (WBC) ([4]; escalating BNP7787 doses with cisplatin 6 mg/kg): dose-dependent protective effect
